Laboratory results reported in ChEMBL document CHEMBL1126505, “Syntheses of Cyclopentane, Cyclohexene and Olefin Oxazoles as Thromboxane A2/Endoperoxide Receptor Antagonists” (Bioorg Med Chem Lett, 1993).

Experiments:
Homo sapiens = species on record: Homo sapiens; experiment: Tested for the ability to inhibit arachidonic acid induced platelet aggregation in human platelet rich plasma; assay type: functional; conditions: read-out: I50
Thromboxane A2 receptor = biological target: T1, Thromboxane A2 receptor (Homo sapiens, UniProt P21731); experiment: Binding affinity was determined for Thromboxane A2 receptor in human platelet membrane using [3H]SQ-29,548 radioligand; assay type: cell membranes
T1 sequence (P21731 whole entry): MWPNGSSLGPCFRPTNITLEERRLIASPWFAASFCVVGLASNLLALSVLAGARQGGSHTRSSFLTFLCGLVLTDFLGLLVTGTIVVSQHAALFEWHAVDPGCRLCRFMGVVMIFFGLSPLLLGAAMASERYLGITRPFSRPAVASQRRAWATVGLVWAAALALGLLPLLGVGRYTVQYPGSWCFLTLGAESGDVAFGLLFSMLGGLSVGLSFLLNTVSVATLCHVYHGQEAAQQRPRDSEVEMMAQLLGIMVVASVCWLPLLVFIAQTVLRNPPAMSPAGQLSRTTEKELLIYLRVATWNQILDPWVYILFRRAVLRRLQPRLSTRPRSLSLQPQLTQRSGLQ

SMILES | IC50 (Homo sapiens) | Kd (Thromboxane A2 receptor)
O=C(O)CCc1ccccc1C[C@@H]1CCC[C@@H]1c1nc(C(=O)NCCCCC2CCCCC2)co1 | 0.107 µM | 0.0238 µM
O=C(O)CCc1ccccc1C[C@H]1CCC[C@@H]1c1nc(C(=O)NCc2ccc(Cl)cc2)co1 | 5.16 µM | 0.0033 µM
O=C(O)CCc1ccccc1C[C@@H]1CCC[C@H]1c1nc(C(=O)NCc2ccc(Cl)cc2)co1 | 0.338 µM | 0.0005 µM
O=C(O)CCc1ccccc1CC1CCC[C@H]1c1nc(C(=O)NCCCCC2CCCCC2)co1 (single isomer, unassigned; (-)) | 0.015 µM | 0.0043 µM

More lines, now with the values ahead:

IC50 (Homo sapiens) | Kd (Thromboxane A2 receptor) | SMILES
0.194 µM | 0.0635 µM | O=C(O)CCc1ccccc1CC1=C(c2nc(C(=O)NCCc3ccc(Cl)cc3)co2)CCCC1
0.235 µM | 0.0373 µM | C/C(Cc1ccccc1CCC(=O)O)=C(\C)c1nc(C(=O)NCCc2ccc(Cl)cc2)co1
